Results: EP4722201A1, “3-PHENYLISOXAZOLINE-5-CARBOXAMIDE COMPOUND, AND PREPARATION METHOD THEREFOR, HERBICIDAL COMPOSITION THEREOF AND USE THEREOF” (Jiangsu Flag Chemical Industry Co., Ltd, priority 2023, dated 2024)

What was measured:
Type in all cases: in vivo
Lolium multiflorum = experiment: Indoor herbicide activity determination, Seed Treatment; pre-emergence (soil spray); details: Dosage 240 g a.i./ha
Outline: (§1)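 Weed seeds were sown in 7 cm pots of sandy nutrient soil (pH 6.1, 1% organic matter), covered, bottom-watered and held 24 h in a constant-temperature illuminated room before the soil surface was sprayed in a traveling spray tower. Fresh-weight inhibition versus untreated plants was scored 21 days later.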

Alopecurus japonicus = experiment: as above; details: Dosage 240 g a.i./ha
Outline: as §1

Alopecurus myosuroides = experiment: as above; details: Dosage 240 g a.i./ha
Outline: as §1

Leptochloa chinensis = experiment: as above; details: Dosage 240 g a.i./ha
Outline: as §1

Eleusine indica = experiment: as above; details: Dosage 240 g a.i./ha
Outline: as §1

Cyperus iria = experiment: Indoor herbicide activity determination, post-emergence (stem and leaf spray at 2-4 leaf stage); details: 504 h, 60 g a.i./ha, determined 21 days later, read-out: Inhibition rate of fresh weight, Cyperus iria
From the text: (§2) The testing method for herbicide activity of the compound of the present invention was as follows:
(§3) Post-emergence: an appropriate quantity of seeds of gramineous weeds (Echinochloa crusgalli, Eleusine indica, Digitaria sanguinalis, Alopecurus japonicus, Beckmannia syzigachne, Leptochloa chinensis, Polypogon fugax, Alopecurus aequalis, Lolium multiflorum, Poa annua, Aegilops tauschii, Avena fatua, Alopecurus myosuroides, Alopecurus japonicus and Alopecurus aequalis), broad-leaved weeds (Eclipta prostrata, Amaranthus retroflexus, Rorippa indica, Malachium aquaticum, Veronica polita, Conyza canadensis, Sesbania cannabina, Sagittariatrifolia and Schoenoplectiella juncoides), and Cyperus iria were sown in plastic pots having a diameter of 7 cm and holes at the bottom and filled with nutrient soil (sandy soil, pH 6.1, organic matter 1%) respectively, the seeds were covered with an appropriate amount of soil after being sown, then the soil was wetted with water from the bottom, the seeds were cultured in a constant-temperature illuminated culture room until a 2-4 leaf stage, and stems and leaves underwent spray treatment. After the treatment, the test materials were placed in a laboratory and cultured in the constant-temperature illuminated culture room after the liquid was naturally dry in the shade, and results were determined 21 days later. Inhibition rate of fresh weight % = (1−(fresh weight of treated plants)/(fresh weight of control plants)) × 100% [formula]

Digitaria sanguinalis = experiment: as above; details: 504 h, 60 g a.i./ha, determined 21 days later, read-out: Inhibition rate of fresh weight, Digitaria sanguinalis
From the text: as §2, §3

Eclipta prostrata = experiment: as above; details: 504 h, 60 g a.i./ha, determined 21 days later, read-out: Inhibition rate of fresh weight, Eclipta prostrata
From the text: as §2, §3

Row | Structure (SMILES) | Herbicidal activities, Lolium multiflorum (inhibition rate class) (Lolium multiflorum) | Herbicidal activities, Alopecurus japonicus (inhibition rate class) (Alopecurus japonicus) | Herbicidal activities, Alopecurus myosuroides (inhibition rate class) (Alopecurus myosuroides) | Herbicidal activities, Leptochloa chinensis (inhibition rate class) (Leptochloa chinensis) | Herbicidal activities, Eleusine indica (inhibition rate class) (Eleusine indica) | inhibition at 60 g/ha (Cyperus iria) | inhibition at 60 g/ha (Digitaria sanguinalis) | inhibition at 60 g/ha (Eclipta prostrata)
1 | C=CC1(C(=O)N[C@H]2C[C@@H](C(=O)O)C2)CC(c2cc(F)cc(C(F)(F)F)c2)=NO1 (mixture of isomers) [I-49] | A (A indicates that the inhibition rate was greater than or equal to 80% to 100%) | A (A indicates that the inhibition rate was greater than or equal to 80% to 100%) | A (A indicates that the inhibition rate was greater than or equal to 80% to 100%) | A (A indicates that the inhibition rate was greater than or equal to 80% to 100%) | A (A indicates that the inhibition rate was greater than or equal to 80% to 100%) | 80 to 100% | 60 to 80% | 60 to 80%
2 | O=C(N[C@H]1C[C@@H](C(=O)O)C1)C1(C(F)(F)F)CC(c2cc(Cl)cc(C(F)(F)F)c2)=NO1 (relative stereo) [I-245] | A (A indicates that the inhibition rate was greater than or equal to 80% to 100%) | A (A indicates that the inhibition rate was greater than or equal to 80% to 100%) | A (A indicates that the inhibition rate was greater than or equal to 80% to 100%) | A (A indicates that the inhibition rate was greater than or equal to 80% to 100%) | A (A indicates that the inhibition rate was greater than or equal to 80% to 100%) | 80 to 100% | 80 to 100% | 60 to 80%
3 | COC(=O)[C@H]1C[C@@H](NC(=O)C2(C)CC(c3cc(F)cc(F)c3)=NO2)C1 (mixture of isomers) [I-113] | A (A indicates that the inhibition rate was greater than or equal to 80% to 100%) | A (A indicates that the inhibition rate was greater than or equal to 80% to 100%) | A (A indicates that the inhibition rate was greater than or equal to 80% to 100%) | A (A indicates that the inhibition rate was greater than or equal to 80% to 100%) | A (A indicates that the inhibition rate was greater than or equal to 80% to 100%) | 80 to 100% | 80 to 100% | 60 to 80%
4 | COC(=O)[C@H]1C[C@@H](NC(=O)C2(C(F)(F)F)CC(c3cccc(F)c3)=NO2)C1 (relative stereo) [I-270] | A (A indicates that the inhibition rate was greater than or equal to 80% to 100%) | A (A indicates that the inhibition rate was greater than or equal to 80% to 100%) | A (A indicates that the inhibition rate was greater than or equal to 80% to 100%) | A (A indicates that the inhibition rate was greater than or equal to 80% to 100%) | A (A indicates that the inhibition rate was greater than or equal to 80% to 100%) | 80 to 100% | 80 to 100% | 40 to 60%
5 | CC1(C(=O)N[C@H]2C[C@@H](C(=O)O)C2)CC(c2cc(F)cc(Cl)c2)=NO1 (mixture of isomers) [I-132] | A (A indicates that the inhibition rate was greater than or equal to 80% to 100%) | A (A indicates that the inhibition rate was greater than or equal to 80% to 100%) | A (A indicates that the inhibition rate was greater than or equal to 80% to 100%) | A (A indicates that the inhibition rate was greater than or equal to 80% to 100%) | A (A indicates that the inhibition rate was greater than or equal to 80% to 100%) | 80 to 100% | 80 to 100% | 60 to 80%
6 | COC(=O)[C@H]1C[C@@H](NC(=O)C2(C(F)(F)F)CC(c3cc(Cl)cc(C(F)(F)F)c3)=NO2)C1 (relative stereo) [I-247] | A (A indicates that the inhibition rate was greater than or equal to 80% to 100%) | A (A indicates that the inhibition rate was greater than or equal to 80% to 100%) | A (A indicates that the inhibition rate was greater than or equal to 80% to 100%) | A (A indicates that the inhibition rate was greater than or equal to 80% to 100%) |  | 80 to 100% | 80 to 100% | 60 to 80%
7 | C=CC1(C(=O)N[C@H]2C[C@@H](C(=O)OC)C2)CC(c2cc(Cl)cc(C(F)(F)F)c2)=NO1 (mixture of isomers) [I-55] | A (A indicates that the inhibition rate was greater than or equal to 80% to 100%) | A (A indicates that the inhibition rate was greater than or equal to 80% to 100%) | A (A indicates that the inhibition rate was greater than or equal to 80% to 100%) | A (A indicates that the inhibition rate was greater than or equal to 80% to 100%) |  | 80 to 100% | 60 to 80% | 60 to 80%
8 | COC(=O)[C@H]1C[C@@H](NC(=O)C2(CF)CC(c3cc(F)cc(F)c3)=NO2)C1 (relative stereo) [I-310] | A (A indicates that the inhibition rate was greater than or equal to 80% to 100%) | A (A indicates that the inhibition rate was greater than or equal to 80% to 100%) | A (A indicates that the inhibition rate was greater than or equal to 80% to 100%) | A (A indicates that the inhibition rate was greater than or equal to 80% to 100%) |  | 80 to 100% | 80 to 100% | 60 to 80%
